From patent publication US9034921B2, “Diphenylmethane derivatives as SGLT2 inhibitors” (GREEN CROSS CORPORATION, priority 2011, dated 2015) come the findings set out here.

The target of the test is human SGLT2 (Homo sapiens (Human), UniProt P31639). The test is described as follows: Inhibitory effects on human SGLT2 activities (14C-AMG uptake, sodium-dependent glucose transport assay). To be noted: CHO cells stably expressing hSGLT2, 37° C., 2 h, single determinations. The class given is cell-based. The source says: Test 1: Cloning and Cell Line Construction for Human SGLT2
human SGLT2, sequence (P31639 whole entry): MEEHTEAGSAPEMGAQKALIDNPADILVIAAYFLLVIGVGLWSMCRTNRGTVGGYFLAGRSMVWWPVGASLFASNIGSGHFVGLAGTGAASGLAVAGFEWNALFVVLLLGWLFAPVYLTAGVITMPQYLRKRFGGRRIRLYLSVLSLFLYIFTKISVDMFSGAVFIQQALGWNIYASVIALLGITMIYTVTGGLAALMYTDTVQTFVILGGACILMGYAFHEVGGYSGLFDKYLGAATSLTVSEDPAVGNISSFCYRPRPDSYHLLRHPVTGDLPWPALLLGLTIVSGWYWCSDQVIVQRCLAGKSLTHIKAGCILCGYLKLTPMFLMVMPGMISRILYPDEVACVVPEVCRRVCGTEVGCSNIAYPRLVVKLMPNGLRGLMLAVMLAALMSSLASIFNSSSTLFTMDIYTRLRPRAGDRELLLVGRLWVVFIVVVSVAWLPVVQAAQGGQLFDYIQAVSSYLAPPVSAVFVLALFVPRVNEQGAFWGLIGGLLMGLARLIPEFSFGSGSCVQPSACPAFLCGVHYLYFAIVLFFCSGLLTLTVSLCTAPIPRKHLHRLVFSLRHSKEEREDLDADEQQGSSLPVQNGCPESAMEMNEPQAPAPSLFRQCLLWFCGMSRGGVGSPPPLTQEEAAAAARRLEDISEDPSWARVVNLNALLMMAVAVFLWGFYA
Human SGLT2 (hSGLT2) gene was amplified by PCR from cDNA-Human Adult Normal Tissue Kidney (Invitrogen). The hSGLT2 sequence was cloned into pcDNA3.1(+) for mammalian expression and stably transfected into chinese hamster ovary (CHO) cells. SGLT2-expressing clones were selected based on resistance to G418 antibiotic (Geneticin) and activity in the ^14C-α-methyl-D-glucopyranoside (^14C-AMG) uptake assay.
Test 2: Inhibitory Effects on Human SGLT2 Activities
For sodium-dependent glucose transport assay, cells expressing hSGLT2 were seeded into a 96-well culture plate at a density of 5×10^4 cells/well in RPMI medium 1640 containing 10% fetal bovine serum. The cells were used 1 day after plating. They were incubated in pretreatment buffer (10 mM HEPES, 5 mM Tris, 140 mM choline chloride, 2 mM KCl, 1 mM CaCl2, and 1 mM MgCl2, pH 7.4) at 37° C. for 10 min. They were then incubated in uptake buffer (10 mM HEPES, 5 mM Tris, 140 mM NaCl, 2 mM KCl, 1 mM CaCl2, 1 mM MgCl2, and 1 mM ^14C-nonlabeled AMG pH 7.4) containing ^14C-labeled AMG (8 μM) and the inventive compound or dimethyl sulfoxide (DMSO) vehicle at 37° C. for 2 h. Cells were washed twice with washing buffer (pretreatment buffer containing 10 mM AMG at room temperature) and then the radioactivity was measured using a liquid scintillation counter. IC50 was determined by nonlinear regression analysis using GraphPad PRISM [Katsuno, K. et al. J. Pharmacol. Exp. Ther. 2007, 320, 323-330; Han, S. et al. Diabetes, 2008, 57, 1723-1729].
The IC50 is the concentration that inhibits the measured activity by half. Low values mean higher potency, high ones lower potency. `OC[C@H]1O[C@@H](c2cc(Cc3ccc4c(c3)OCCO4)c(Cl)c3c2CCO3)[C@H](O)[C@@H](O)[C@@H]1O` [Example E045, (2S,3R,4R,5S,6R)-2-(7-Chloro-6-((2,3-dihydrobenzo[b][1,4]dioxin-6-yl)methyl)-2,3-dihydrobenzofuran-4-yl)-6-(hydroxymethyl)tetrahydro-2H-pyran-3,4,5-triol] showed an IC50 of 1.37 nM.

`CCOc1ccc(Cc2cc([C@@H]3O[C@H](CO)[C@@H](O)[C@H](O)[C@H]3O)c3sccc3c2Cl)cc1` [Example E046, (2S,3R,4R,5S,6R)-2-(4-Chloro-5-(4-ethoxybenzyl)benzo[b]thiophen-7-yl)-6-(hydroxymethyl)tetrahydro-2H-pyran-3,4,5-triol] came in with an IC50 of 275 nM.

Take `OC[C@H]1S[C@@H](c2ccc(Cl)c(Cc3ccc4c(c3)OCCO4)c2)[C@H](O)[C@@H](O)[C@@H]1O` [Example E047, (2S,3R,4R,5S,6R)-2-(4-Chloro-3-((2,3-dihydrobenzo[b][1,4]dioxin-6-yl)methyl)phenyl)-6-(hydroxymethyl)tetrahydro-2H-thiopyran-3,4,5-triol]: the IC50 amounted to 4.17 nM. Against the preceding molecule, the IC50 is about 66-fold lower.

In the case of `COc1cc(Cl)c(Cc2ccc3c(c2)OCCO3)cc1[C@@H]1S[C@H](CO)[C@@H](O)[C@H](O)[C@H]1O` [Example E048, (2S,3R,4R,5S,6R)-2-(4-Chloro-5-((2,3-dihydrobenzo[b][1,4]dioxin-6-yl)methyl)-2-methoxyphenyl)-6-(hydroxymethyl)tetrahydro-2H-thiopyran-3,4,5-triol], the half-maximal inhibitory concentration (IC50) amounted to 2.62 nM. Against the preceding molecule, the IC50 is about 1.6-fold lower.

As for `OC[C@H]1O[C@@H](c2ccc(Cl)c(Cc3ccc4c(c3)OCCO4)c2)[C@H](O)[C@@H](O)[C@@H]1O` [Example E049, (2S,3R,4R,5S,6R)-2-(4-Chloro-3-((2,3-dihydrobenzo[b][1,4]dioxin-6-yl)methyl)phenyl)-6-(hydroxymethyl)-tetrahydro-2H-pyran-3,4,5-triol], inhibition was half-maximal at 1.23 nM (IC50).

`OC[C@H]1O[C@@H](c2cc(Cc3ccc4c(c3)OCCO4)c(Cl)cc2O)[C@H](O)[C@@H](O)[C@@H]1O` [Example E052, (2S,3R,4R,5S,6R)-2-(4-Chloro-5-((2,3-dihydrobenzo[b][1,4]dioxin-6-yl)methyl)-2-hydroxyphenyl)-6-(hydroxymethyl)-tetrahydro-2H-pyran-3,4,5-triol] registered a half-maximal inhibitory concentration (IC50) of 1.64 nM.

`Cc1ccc([C@@H]2O[C@H](CO)[C@@H](O)[C@H](O)[C@H]2O)cc1Cc1ccc2c(c1)OCCO2` [Example E054, (2S,3R,4R,5S,6R)-2-(3-((2,3-Dihydrobenzo[b][1,4]dioxin-6-yl)methyl)-4-methylphenyl)-6-(hydroxymethyl)-tetrahydro-2H-pyran-3,4,5-triol] came in with an IC50 of 2.02 nM.

`OC[C@H]1O[C@@H](c2ccc(Cl)c(Cc3ccc4c(c3)OCO4)c2)[C@H](O)[C@@H](O)[C@@H]1O` [Example E056, (2S,3R,4R,5S,6R)-2-(3-(Benzo[d][1,3]dioxol-5-ylmethyl)-4-chlorophenyl)-6-(hydroxymethyl)-tetrahydro-2H-pyran-3,4,5-triol] showed an IC50 of 2.58 nM.

For the molecule `OC[C@H]1O[C@@H](c2ccc(Cl)c(Cc3ccc4c(c3)CCC4)c2)[C@H](O)[C@@H](O)[C@@H]1O` [Example E057, (2S,3R,4R,5S,6R)-2-(4-Chloro-3-((2,3-dihydro-1H-inden-5-yl)methyl)phenyl)-6-(hydroxymethyl)-tetrahydro-2H-pyran-3,4,5-triol], half-maximal inhibition (IC50) required 2.15 nM. This IC50 and that of the molecule before are within 1.5-fold of each other.

The molecule `OC[C@H]1O[C@@H](c2ccc(Cl)c(Cc3ccc4c(c3)CCCC4)c2)[C@H](O)[C@@H](O)[C@@H]1O` [Example E060, (2S,3R,4R,5S,6R)-2-(4-Chloro-3-((5,6,7,8-tetrahydronaphthalen-2-yl)methyl)phenyl)-6-(hydroxymethyl)-tetrahydro-2H-pyran-3,4,5-triol] showed an IC50 of 2.99 nM.

`OC[C@H]1O[C@@H](c2ccc(Cl)c(Cc3ccc4c(c3)CCCS4)c2)[C@H](O)[C@@H](O)[C@@H]1O` [Example E061, (2S,3R,4R,5S,6R)-2-(4-Chloro-3-(thiochroman-6-ylmethyl)phenyl)-6-(hydroxymethyl)-tetrahydro-2H-pyran-3,4,5-triol] displayed an IC50 of 3.35 nM.

Molecule `CC1(C)COc2cc(Cc3cc([C@@H]4O[C@H](CO)[C@@H](O)[C@H](O)[C@H]4O)ccc3Cl)ccc2O1` [Example E064, (2S,3R,4R,5S,6R)-2-(4-Chloro-3-((2,2-dimethyl-2,3-dihydrobenzo[b][1,4]dioxin-6-yl)methyl)phenyl)-6-(hydroxymethyl)-tetrahydro-2H-pyran-3,4,5-triol] yielded a concentration for half-maximal inhibition (IC50) of 5.78 nM.

The molecule `CC1Cc2cc(Cc3cc([C@@H]4O[C@H](CO)[C@@H](O)[C@H](O)[C@H]4O)ccc3Cl)ccc2O1` (stereo partly drawn) [Example E065, (2S,3R,4R,5S,6R)-2-(4-Chloro-3-((2-methyl-2,3-dihydrobenzofuran-5-yl)methyl)phenyl)-6-(hydroxymethyl)-tetrahydro-2H-pyran-3,4,5-triol] showed a half-maximal inhibitory concentration (IC50) of 7.62 nM. The IC50 values of the last two molecules are within 1.5-fold of each other.

In turn, `OC[C@H]1O[C@@H](c2ccc(Cl)c(Cc3ccc4c(c3)SCO4)c2)[C@H](O)[C@@H](O)[C@@H]1O` [Example E066, (2S,3R,4R,5S,6R)-2-(3-(Benzo[d][1,3]oxathiol-5-ylmethyl)-4-chlorophenyl)-6-(hydroxymethyl)-tetrahydro-2H-pyran-3,4,5-triol] yielded a half-maximal inhibitory concentration (IC50) of 3.67 nM.

Molecule `OC[C@H]1O[C@@H](c2ccc(Cl)c(Cc3ccc4c(c3)COCO4)c2)[C@H](O)[C@@H](O)[C@@H]1O` [Example E068, (2S,3R,4R,5S,6R)-2-(3-((4H-Benzo[d][1,3]dioxin-6-yl)methyl)-4-chlorophenyl)-6-(hydroxymethyl)-tetrahydro-2H-pyran-3,4,5-triol] yielded an IC50 of 9.47 nM.

Turning to `OC[C@H]1O[C@@H](c2ccc(Cl)c(Cc3ccc4c(c3)OC=CO4)c2)[C@H](O)[C@@H](O)[C@@H]1O` [Example E069], 0.788 nM corresponded to half-maximal inhibition (IC50).

`OC[C@H]1O[C@@H](c2ccc(Cl)c(Cc3ccc4c(c3)SCCO4)c2)[C@H](O)[C@@H](O)[C@@H]1O` [Example E072, (2S,3R,4R,5S,6R)-2-(4-Chloro-3-((2,3-dihydrobenzo[b][1,4]oxathiin-6-yl)methyl)phenyl)-6-(hydroxymethyl)-tetrahydro-2H-pyran-3,4,5-triol] came in with an IC50 of 1.75 nM.

For the molecule `O=S1(=O)CCOc2ccc(Cc3cc([C@@H]4O[C@H](CO)[C@@H](O)[C@H](O)[C@H]4O)ccc3Cl)cc21` [Example E073, (2S,3R,4R,5S,6R)-2-(4-Chloro-3-((1,1-dioxo-2,3-dihydrobenzo[b][1,4]oxathiin-6-yl)methyl)phenyl)-6-(hydroxymethyl)-tetrahydro-2H-pyran-3,4,5-triol], the half-maximal inhibitory concentration (IC50) was 78.5 nM.

As for `CCc1ccc(Cc2cc([C@@H]3O[C@H](CO)[C@@H](O)[C@H](O)[C@H]3O)cc(-c3ccccc3)c2C)cc1` [Example E076], the IC50 was 9.63 nM.

`CCOc1ccc(Cc2cc([C@@H]3O[C@H](CO)[C@@H](O)[C@H](O)[C@H]3O)cc(-c3ccccc3)c2C)cc1` [Example E077]: half-maximal inhibition (IC50) was put at 3.84 nM.

In the case of `CCOc1ccc(Cc2cc([C@@H]3O[C@H](CO)[C@@H](O)[C@H](O)[C@H]3O)cc(-c3ccc(F)cc3)c2C)cc1` [Example E078], the half-inhibitory concentration (IC50) is 93.3 nM.

For `Cc1c(Cc2ccc3c(c2)OCCO3)cc([C@@H]2O[C@H](CO)[C@@H](O)[C@H](O)[C@H]2O)cc1-c1ccccc1` [Example E084, (2S,3R,4R,5S,6R)-2-(5-((2,3-Dihydrobenzo[b][1,4]dioxin-6-yl)methyl)-6-methylbiphenyl-3-yl)-6-(hydroxymethyl)-tetrahydro-2H-pyran-3,4,5-triol], the half-maximal inhibitory concentration (IC50) turned out to be 5.3 nM. This IC50 lies about 18-fold lower than the previous one.

The molecule `Cc1c(Br)cc([C@@H]2O[C@H](CO)[C@@H](O)[C@H](O)[C@H]2O)cc1Cc1ccc2c(c1)OCCO2` [Example E085, (2S,3R,4R,5S,6R)-2-(3-Bromo-5-((2,3-dihydrobenzo[b][1,4]dioxin-6-yl)methyl)-4-methylphenyl)-6-(hydroxymethyl)-tetrahydro-2H-pyran-3,4,5-triol] had a concentration for half-maximal inhibition (IC50) of 1.82 nM. Compared with the last molecule, the IC50 is about 2.9-fold lower.

For the molecule `CCOc1ccc(Cc2cc([C@@H]3O[C@H](CO)[C@@H](O)[C@H](O)[C@H]3O)cc(-c3ccccc3Cl)c2C)cc1` [Example E086, (2S,3R,4R,5S,6R)-2-(6′-Chloro-5-(4-ethoxybenzyl)-6-methylbiphenyl-3-yl)-6-(hydroxymethyl)-tetrahydro-2H-pyran-3,4,5-triol], 15.4 nM corresponded to half-maximal inhibition (IC50).

`CCOc1ccc(Cc2cc([C@@H]3O[C@H](CO)[C@@H](O)[C@H](O)[C@H]3O)cc(-c3cccc(C#N)c3)c2C)cc1` [Example E087, 3′-(4-Ethoxybenzyl)-2′-methyl-5′-((2S,3R,4R,5S,6R)-3,4,5-trihydroxy-6-(hydroxymethyl)-tetrahydro-2H-pyran-2-yl)biphenyl-3-carbonitrile]: half-maximal inhibition (IC50) was put at 38.9 nM.

For `CCOc1ccc(Cc2cc([C@@H]3O[C@H](CO)[C@@H](O)[C@H](O)[C@H]3O)cc(-c3ccsc3)c2C)cc1` [Example E089, (2S,3R,4R,5S,6R)-2-(3-(4-Ethoxybenzyl)-4-methyl-5-(thiophen-3-yl)phenyl)-6-(hydroxymethyl)-tetrahydro-2H-pyran-3,4,5-triol], the half-maximal inhibitory concentration (IC50) came out at 2.55 nM.
